# In patent US20260035403A1, “NUCLEOSIDE LINE-1 INHIBITORS” (TRANSPOSON THERAPEUTICS, INC., priority 2022, published 2026):
# System: human LINE-1
# Assay: Human LINE-1 retrotransposition assay (HeLa cell-based dual-luciferase reporter)
# Settings: Homo sapiens, HeLa, 72 h, Human LINE-1 activity inhibition; HeLa cells, reporter plasmid pYX017, Firefly/Renilla, 72 h incubation
# Procedure: Representative Compounds of the Disclosure were tested for inhibition of retrotransposition activity of human LINE-1 in HeLa cells according to the following procedure.
# HeLa cervical cancer cells were cultivated at 37° C. in a humidified 5% CO2 incubator in Dulbecco's Modified Eagle's Medium (DMEM)—high glucose, with 4500 mg/L glucose, L-glutamine, sodium pyruvate and sodium bicarbonate (Sigma), supplemented with 10% of heat inactivated fetal bovine serum (Thermo Fisher).
# Assays were performed using reporter plasmid pYX017 as described (Xie, et al., 2011) with several modifications. The reporter assay was performed in 96-well white optical bottom plates. HeLa cells were seeded in wells 24 h prior to transfection and compound treatment so that cells were approximately 30% confluent on the day of transfection. Different cell plating densities were tested and a density of 2×10^3 cells was determined to be optimal.
# Compounds were resuspended in DMSO. Serial dilutions (1:3) were prepared in DMSO. Medium containing different concentrations of the compounds were prepared by adding 2 μl of the compound dilution to 1 ml of the culture medium. The final concentration of DMSO in the medium was 0.2%.
# FuGENE® HD transfection reagent (Promega, E2311, Lot 382574 and Lot 397842) was used to transfect the plasmids into the cells. The transfection reagent: DNA mixture was prepared in OpiMEM (Thermo Fisher) according to manufacturer's instructions. Different ratios of transfection reagent to DNA were tested and a ratio of 3:1 was determined to be optimal. Culture medium was removed from the cells and discarded. The transfection reagent: DNA mixture (5 μl) was mixed with the compound containing medium (100 μl/well) and this was added onto the cells of each well. Cells were incubated at 37° C./5% CO2 for different incubation time. A 72 h incubation time was determined to be optimal.
# Luciferase reporter activity was quantified with the Dual-Luciferase® Reporter Assay System (Promega) according to manufacturer's instructions for multiwell plates except that cells were lysed directly on the multiwell plate with 30 μl of the passive lysis buffer (PLB) for 20 min at room temperature, with gentle shaking to ensure complete cell lysis.
# Firefly and Renilla luciferase signals were measured using a SpectraMax i3× Multi-Mode Microplate Reader. Integration times of 100 ms and 10 ms were used to measure the Firefly and Renilla signals respectively. Relative L1 activity is calculated as Firefly/Renilla*1000 or Firefly/Renilla*10,000. Dose response inhibition data were fit to a four parameter logistic equation using non-linear regression (using Graphpad Prism 8), to determine IC50 values for each inhibitor.
row,IC50,Structure (SMILES)
1,> 12.5 µM,"C=C[C@]1(CO)O[C@H](n2cc(C)c(=O)[nH]c2=O)C[C@@H]1O [compound 63, 1-((2S,4S,5R)-4-hydroxy-5-(hydroxymethyl)-5-vinyltetrahydrofuran-2-yl)-5-methylpyrimidine-2,4(1H,3H)-dione]"
2,25.5 µM,"C#C[C@]1(CO)O[C@H](n2cc(C)c(=O)[nH]c2=O)C[C@@H]1O [compound 50, 1-((2S,4S,5R)-5-ethynyl-4-hydroxy-5-(hydroxymethyl)tetrahydrofuran-2-yl)-5-methylpyrimidine-2,4(1H,3H)-dione]"
3,6.2 µM,"C=C[C@]1(CO)O[C@@H](n2cc(C#N)c(=O)[nH]c2=O)C[C@@H]1O [Cpd. No. 69, 1-((2R,4S,5R)-4-hydroxy-5-(hydroxymethyl)-5-vinyltetrahydrofuran-2-yl)-2,4-dioxo-1,2,3,4-tetrahydropyrimidine-5-carbonitrile]"
4,5.08 µM,"C#C[C@]1(CO)OC(n2ccc(=O)[nH]c2=O)C[C@@H]1O (stereo partly drawn) [compound 51, 1-((4S,5R)-5-ethynyl-4-hydroxy-5-(hydroxymethyl)tetrahydrofuran-2-yl)pyrimidine-2,4(1H,3H)-dione]"
5,> 40 µM,"Nc1nc(F)nc2c1ncn2[C@H]1C[C@H](O)C(CO)(CO)O1 [compound 154, ((3S,5R)-5-(6-amino-2-fluoro-9H-purin-9-yl)-3-hydroxytetrahydrofuran-2,2-diyl)dimethanol]"
6,> 50 µM,"C#C[C@]1(CO)OC(n2cc(C)c(N)nc2=O)C[C@@H]1O (stereo partly drawn) [compound 46, 4-amino-1-((4S,5R)-5-ethynyl-4-hydroxy-5-(hydroxymethyl)tetrahydrofuran-2-yl)-5-methylpyrimidin-2(1H)-one]"
7,0.173 µM,"C=C[C@]1(CO)O[C@H](n2cnc3c(O)nc(N)nc32)C[C@@H]1O [compound 87, 2-amino-9-((2S,4S,5R)-4-hydroxy-5-(hydroxymethyl)-5-vinyltetrahydrofuran-2-yl)-9H-purin-6-ol]"
8,> 25 µM,"CC[C@]1(CO)O[C@@H](n2cc(C#N)c(=O)[nH]c2=O)C[C@@H]1O [Cpd. No. 98, 1-((2R,4S,5R)-5-ethyl-4-hydroxy-5-(hydroxymethyl)tetrahydrofuran-2-yl)-4-hydroxy-2-oxo-1,2-dihydropyrimidine-5-carbonitrile]"
9,> 50 µM,"C#C[C@@]1(CO)C=C[C@H](n2cc(C)c(N)nc2=O)O1 [compound 42, 4-amino-1-((2R,5R)-5-ethynyl-5-(hydroxymethyl)-2,5-dihydrofuran-2-yl)-5-methylpyrimidin-2(1H)-one]"
10,0.658 µM,"C=C[C@]1(CO)O[C@@H](n2cc(Br)c(N)nc2=O)C[C@@H]1O [Cpd. No. 90, 4-amino-5-bromo-1-((2R,4S,5R)-4-hydroxy-5-(hydroxymethyl)-5-vinyltetrahydrofuran-2-yl)pyrimidin-2(1H)-one]"
11,0.122 µM,"CC[C@]1(CO)O[C@@H](n2cnc3c(N)ncnc32)[C@@H](F)[C@@H]1O [compound 192, (2R,3R,4S,5R)-5-(6-amino-9H-purin-9-yl)-2-ethyl-4-fluoro-2-(hydroxymethyl)tetrahydrofuran-3-ol]"
12,7.3 µM,"COC[C@@H]1C=C[C@H](n2cc(C)c(=O)[nH]c2=O)O1 [compound 107, 1-((2R,5S)-5-(methoxymethyl)-2,5-dihydrofuran-2-yl)-5-methylpyrimidine-2,4(1H,3H)-dione]"
13,0.259 µM,"C#C[C@]1(CO)O[C@@H](n2cnc3c(OC)nc(N)nc32)C[C@@H]1O [compound 101, (2R,3S,5R)-5-(2-amino-6-methoxy-9H-purin-9-yl)-2-ethynyl-2-(hydroxymethyl)tetrahydrofuran-3-ol]"
14,0.876 µM,"C#C[C@]1(CO)OC(n2cc(C)c(=O)[nH]c2=O)C[C@@H]1O (stereo partly drawn) [compound 43, 1-((4S,5R)-5-ethynyl-4-hydroxy-5-(hydroxymethyl)tetrahydrofuran-2-yl)-5-methylpyrimidine-2,4(1H,3H)-dione]"
15,14 µM,"C#C[C@]1(CO)O[C@H](n2cnc3c(NC4CC4)nc(F)nc32)C[C@@H]1O [compound 84, (2R,3S,5S)-5-(6-(cyclopropylamino)-2-fluoro-9H-purin-9-yl)-2-ethynyl-2-(hydroxymethyl)tetrahydrofuran-3-ol]"
16,3.17 µM,"Nc1nc(=O)n([C@H]2C[C@@H]3OC=C[C@]3(CO)O2)cc1F [compound 139, 4-amino-5-fluoro-1-((2R,3aS,6aR)-6a-(hydroxymethyl)-2,3,3a,6a-tetrahydrofuro[3,2-b]furan-2-yl)pyrimidin-2(1H)-one]"
17,4.4 µM,"C#C[C@]1(CO)OC(n2cnc3c(O)ncnc32)C[C@@H]1O (stereo partly drawn) [compound 81, 9-((4S,5R)-5-ethynyl-4-hydroxy-5-(hydroxymethyl)tetrahydrofuran-2-yl)-9H-purin-6-ol]"
18,> 50 µM,"C#C[C@]1(CO)OC(n2cc(C#N)c(=O)[nH]c2=O)C[C@@H]1O (stereo partly drawn) [compound 58, 1-((4S,5R)-5-ethynyl-4-hydroxy-5-(hydroxymethyl)tetrahydrofuran-2-yl)-2,4-dioxo-1,2,3,4-tetrahydropyrimidine-5-carbonitrile]"
19,> 50 µM,"CC#C[C@@]1(CO)O[C@@H](n2cc(C)c(=O)[nH]c2=O)C[C@H]1O [compound 24, 1-((2R,4R,5S)-4-hydroxy-5-(hydroxymethyl)-5-(prop-1-yn-1-yl)tetrahydrofuran-2-yl)-5-methylpyrimidine-2,4(1H,3H)-dione]"
20,3.67 µM,"C=C[C@]1(CO)O[C@@H](n2cc(C)c(=O)[nH]c2=O)C[C@@H]1O [Cpd. No. 62, 1-((2R,4S,5R)-4-hydroxy-5-(hydroxymethyl)-5-vinyltetrahydrofuran-2-yl)-5-methylpyrimidine-2,4(1H,3H)-dione]"
21,414 µM,"C#C[C@]1(CO)O[C@@H](n2ccc(N)nc2=O)C(F)(F)[C@@H]1O [compound 200, 4-amino-1-((2R,4R,5R)-5-ethynyl-3,3-difluoro-4-hydroxy-5-(hydroxymethyl)tetrahydrofuran-2-yl)pyrimidin-2(1H)-one]"
22,50 µM,"C#C[C@@]1(CO)C=C[C@H](n2cnc3c(N)ncnc32)O1 [compound 14, ((2R,5R)-5-(6-amino-9H-purin-9-yl)-2-ethynyl-2,5-dihydrofuran-2-yl)methanol]"
23,16 µM,"C#C[C@@]1(CO)C=C[C@H](n2ccc(=O)[nH]c2=O)O1 [compound 30, 1-((2R,5R)-5-ethynyl-5-(hydroxymethyl)-2,5-dihydrofuran-2-yl)pyrimidine-2,4(1H,3H)-dione]"
24,> 50 µM,"Cc1cn([C@H]2C[C@@H](O)[C@@](C)(CO)O2)c(=O)[nH]c1=O [compound 23, 1-((2R,4R,5R)-4-hydroxy-5-(hydroxymethyl)-5-methyltetrahydrofuran-2-yl)-5-methylpyrimidine-2,4(1H,3H)-dione]"
25,> 50 µM,"C#C[C@]1(CO)O[C@@H](n2nc(C)c3c(N)nc(F)nc32)C[C@@H]1O [Cpd. No. 75, (2R,3S,5R)-5-(4-amino-6-fluoro-3-methyl-1H-pyrazolo[3,4-d]pyrimidin-1-yl)-2-ethynyl-2-(hydroxymethyl)tetrahydrofuran-3-ol]"
26,> 50 µM,"CC[C@]1(CO)O[C@@H](n2cnc3c(N)ncnc32)[C@H](O)[C@@H]1O [compound 196, (2R,3S,4R,5R)-5-(6-amino-9H-purin-9-yl)-2-ethyl-2-(hydroxymethyl)tetrahydrofuran-3,4-diol]"

row,Structure (SMILES),IC50
1,"C#C[C@@]1(CO)O[C@H](n2ccc(N)nc2=O)C[C@H]1O [Cpd. No. 76, 4-amino-1-((2S,4R,5S)-5-ethynyl-4-hydroxy-5-(hydroxymethyl)tetrahydrofuran-2-yl)pyrimidin-2(1H)-one]",> 6.25 µM
2,"C#C[C@@]1(CO)O[C@@H](n2ccc(N)nc2=O)C[C@H]1O [Cpd. No. 77, 4-amino-1-((2R,4R,5S)-5-ethynyl-4-hydroxy-5-(hydroxymethyl)tetrahydrofuran-2-yl)pyrimidin-2(1H)-one]",> 6.25 µM
3,"C#C[C@]1(CO)OC(n2cnc(C(N)=O)n2)C[C@@H]1O (stereo partly drawn) [Cpd. No. 11, 1-((4S,5R)-5-ethynyl-4-hydroxy-5-(hydroxymethyl)tetrahydrofuran-2-yl)-1H-1,2,4-triazole-3-carboxamide]",> 50 µM

# Same assay, conditions: Human LINE-1 activity inhibition; HeLa cells, reporter plasmid pYX017, Firefly/Renilla, 72 h incubation
row,IC50,Structure (SMILES)
1,7.45 µM,"C#C[C@]1(CO)OC(n2cnc3c(O)ncnc32)C[C@@H]1O (stereo partly drawn) [compound 81, 9-((4S,5R)-5-ethynyl-4-hydroxy-5-(hydroxymethyl)tetrahydrofuran-2-yl)-9H-purin-6-ol]"
2,20.1 µM,"C#C[C@@]1(CO)C=C[C@H](n2cc(F)c(=O)[nH]c2=O)O1 [compound 22, 1-((5R)-5-ethynyl-5-(hydroxymethyl)-2,5-dihydrofuran-2-yl)-5-fluoropyrimidine-2,4(1H,3H)-dione]"

row,Structure (SMILES),IC50
1,"CC[C@]1(CO)O[C@@H](n2cnc3c(N)nc(F)nc32)[C@@H](F)[C@@H]1O [compound 191, (2R,3R,4S,5R)-5-(6-amino-2-fluoro-9H-purin-9-yl)-2-ethyl-4-fluoro-2-(hydroxymethyl)tetrahydrofuran-3-ol]",56 µM
